Patent US20060069132A1, “Azolecarboxamide herbicides” (priority 2004, published 2006)

Key:
[1] = test system: junglerice; assay: Test D flooded paddy test; type: in vivo, Echinochloa colona; conditions: 21 days, scale 0 to 100
Excerpt: (§1) Three plastic pots (ca. 16-cm diameter) per rate were partially filled with sterilized Tama silt loam soil comprising a 35:50:15 ratio of sand, silt and clay and 2.6% organic matter. Separate plantings for each of the three pots were as follows. Seeds from the U.S. of ducksalad (Heteranthera limosa (Sw.) Willd.), smallflower umbrella sedge (Cyperus difformis L.) and purple redstem (Ammannia coccinea Rottb.), were planted into one 16-cm pot for each rate. Seeds from the U.S. of rice flatsedge (Cyperus iria L.), bearded sprangletop (Leptochloa fascicularis (Lam.) Gray), one stand of 9 or 10 water seeded rice seedlings (Oryza sativa L. cv. ‘Japonica—M202’), and one stand of 6 transplanted rice seedlings (Oryza sativa L. cv. ‘Japonica—M202’) were planted into one 16-cm pot for each rate. Seeds from the U.S. of barnyardgrass (Echinochloa crus-galli (L.) Beauv.), late watergrass (Echinochloa oryzicola Vasinger), early watergrass (Echinochloa oryzoides (Ard.) Fritsch) and junglerice (Echinochloa colona (L.) Link) were planted into one 16-cm pot for each rate. Plantings were sequential so that crop and weed species were at the 2.0 to 2.5-leaf stage at time of treatment.
(§2) Potted plants were grown in a greenhouse with day/night temperature settings of 29.5/26.7° C., and supplemental balanced lighting was provided to maintain a 16-hour photoperiod. Test pots were maintained in the greenhouse until test completion.
(§3) At time of treatment, test pots were flooded to 3 cm above the soil surface, treated by application of test compounds directly to the paddy water, and then maintained at that water depth for the duration of the test. Effects of treatments on rice and weeds were visually evaluated by comparison to untreated controls after 21 days. Plant response ratings are reported on a 0 to 100 scale; where 0 is no effect and 100 is complete control. A dash (-) response means no test result.

[2] = test system: purple redstem; assay: Test D flooded paddy test; type: in vivo, Ammannia coccinea; conditions: 21 days, scale 0 to 100
Excerpt: as §1, §2, §3

[3] = test system: barnyardgrass; assay: Test D flooded paddy test; type: in vivo, Echinochloa crus-galli; conditions: 21 days, scale 0 to 100
Excerpt: as §1, §2, §3

[4] = test system: late watergrass; assay: Test D flooded paddy test; type: in vivo, Echinochloa oryzicola; conditions: 21 days, scale 0 to 100
Excerpt: as §1, §2, §3

[5] = test system: smallflower umbrella sedge; assay: Test D flooded paddy test; type: in vivo, Cyperus difformis; conditions: 21 days, scale 0 to 100
Excerpt: as §1, §2, §3

[6] = test system: hairy beggarticks; assay: Test E pre-/postemergence herbicide test; type: in vivo, Bidens radiata; conditions: Preemergence
Excerpt: Seeds of plant species selected from bipinnate beggarticks (Bidens bipinnata L.), hairy beggarticks (Bidens radiata Thuill.), bermudagrass (Cynodon dactylon (L.) Pers.), Surinam grass (Urochloa decumbens (Staph) R. D. Webster, previously named Brachiaria decumbens Stapf), large crabgrass (Digitaria sanguinalis (L.) Scop.), green foxtail (Setaria viridis (L.) P. Beauv.), goosegrass (Eleusine indica (L.) Gaertn.), johnsongrass (Sorghum halepense (L.) Pers.), kochia (Kochia scoparia (L.) Schrad.), pitted morningglory (Ipomoea lacunosa L.), purple nutsedge (Cyperus rotundus L.), common ragweed (Ambrosia elatior L.), mustard (Brassica nigra (L.) W. D. J. Koch), guineagrass (Panicum maximum Jacq.), dallisgrass (Paspalum dilatatum Poir.), barnyardgrass (Echinochloa crus-galli (L). P. Beauv.), southern sandbur (Cenchrus echinatus L.), common sowthistle (Sonchus oleraceous L.), prickly sida (Sida spinosa L.), Italian ryegrass (Lolium multiflorum Lam.), common purslane (Portulaca oleracea L.), broadleaf signalgrass (Brachiaria platyphylla (Griseb.) Nash), common groundsel (Senecio vulgaris L.), common chickweed (Stellaria media (L.) Vill/Cyr.), tropical spiderwort (Commelina benghalensis L.), annual bluegrass (Poa annua L.), downy bromegrass (Bromus tectorum L.), itchgrass (Rottboellia cochinchinensis (L.) L.f.), quackgrass (Elytrigia repens (L.) Nevski), Canada horseweed (Erigeron Canadensis L.), field bindweed (Convolvulus arvensis L.), spotted spurge (Euphorbia maculata L.), common mallow (Malva sylvestris (=s silvestris) L.), and Russian thistle (Salsola kali L. ssp. Ruthenica (Iljin) Soo) were planted and treated preemergence with test chemicals formulated in a non-phytotoxic solvent mixture which included a surfactant.
At the same time, plants selected from these weed species were treated with postemergence applications of some of the test chemicals formulated in the same manner. Plants ranged in height from 2 to 18 cm (1- to 4-leaf stage) for postemergence treatments. Treated plants and controls were maintained in a greenhouse for 12 to 14 days, after which time all species were compared to controls and visually evaluated. Plant response ratings, summarized in Table E, are based on a scale of 0 to 100 where 0 is no effect and 100 is complete control. A dash (-) response means no test result.

Question: For `CCn1nc(C(C)(C)C)cc1C(=O)Nc1cc(C(=O)NCC2CC2)ccn1` [Compound 155], which “Plant response rating, Junglerice” value ([1]; 32 g ai/ha) is on record?
Answer: 20

Question: What about the “Plant response rating, Junglerice” value ([1]; 64 g ai/ha) of the same molecule?
Answer: 40

Question: And the “Plant response rating, Junglerice” value ([1]; 125 g ai/ha)?
Answer: 40

Question: What about the “Plant response rating, Junglerice” value ([1]; 250 g ai/ha) of the same molecule?
Answer: 40

Question: What about the “Plant response rating, Junglerice” value ([1]; 500 g ai/ha) of the same molecule?
Answer: 65

Question: What about the “Plant response rating, Redstem” value ([2]; 32 g ai/ha) of the same molecule?
Answer: 0

Question: What about the “Plant response rating, Redstem” value ([2]; 64 g ai/ha) of the same molecule?
Answer: 0

Question: What about the “Plant response rating, Redstem” value ([2]; 125 g ai/ha) of the same molecule?
Answer: 0

Question: What about the “Plant response rating, Redstem” value ([2]; 250 g ai/ha) of the same molecule?
Answer: 95

Question: What about the “Plant response rating, Redstem” value ([2]; 500 g ai/ha) of the same molecule?
Answer: 95

Question: What about the “Plant response rating, Barnyardgrass” value ([3]; 32 g ai/ha) of the same molecule?
Answer: 0

Question: What about the “Plant response rating, Barnyardgrass” value ([3]; 64 g ai/ha) of the same molecule?
Answer: 0

Question: What about the “Plant response rating, Barnyardgrass” value ([3]; 125 g ai/ha) of the same molecule?
Answer: 20

Question: What about the “Plant response rating, Barnyardgrass” value ([3]; 250 g ai/ha) of the same molecule?
Answer: 35

Question: What about the “Plant response rating, Barnyardgrass” value ([3]; 500 g ai/ha) of the same molecule?
Answer: 80

Question: And the “Plant response rating, Watergrass, Late” value ([4]; 32 g ai/ha)?
Answer: 0

Question: And the “Plant response rating, Watergrass, Late” value ([4]; 64 g ai/ha)?
Answer: 0

Question: And the “Plant response rating, Watergrass, Late” value ([4]; 125 g ai/ha)?
Answer: 20

Question: And the “Plant response rating, Watergrass, Late” value ([4]; 250 g ai/ha)?
Answer: 30

Question: And the “Plant response rating, Watergrass, Late” value ([4]; 500 g ai/ha)?
Answer: 60

Question: And the “Plant response rating, Sedge, Umbrella” value ([5]; 32 g ai/ha)?
Answer: 30

Question: What about the “Plant response rating, Sedge, Umbrella” value ([5]; 64 g ai/ha) of the same molecule?
Answer: 65

Question: What about the “Plant response rating, Sedge, Umbrella” value ([5]; 125 g ai/ha) of the same molecule?
Answer: 75

Question: What about the “Plant response rating, Sedge, Umbrella” value ([5]; 250 g ai/ha) of the same molecule?
Answer: 75

Question: What about the “Plant response rating, Sedge, Umbrella” value ([5]; 500 g ai/ha) of the same molecule?
Answer: 80

Question: How did the “Plant response rating, Beggarticks, Hairy” value ([6]; 62 g ai/ha, scale 0 to 100) turn out when `CCN1N=C(C(C)(C)C)CC1C(=O)Nc1cc(C(=O)N(C)C)ccc1F` (centres unmarked) [Compound 268, N-[5-[(dimethylamino)carbonyl]-2-fluorophenyl]-3-(1,1-dimethylethyl)-1-ethyl-4,5-dihydro-1H-pyrazole-5-carboxamide] was run?
Answer: 40

Question: What about the “Plant response rating, Beggarticks, Hairy” value ([6]; 125 g ai/ha, scale 0 to 100) of the same molecule?
Answer: 95

Question: What about the “Plant response rating, Beggarticks, Hairy” value ([6]; 250 g ai/ha, scale 0 (no effect) to 100 (complete control)) of the same molecule?
Answer: 100

Question: And the “Plant response rating, Beggarticks, Hairy” value ([6]; 500 g ai/ha, scale 0 (no effect) to 100 (complete control))?
Answer: 100
